In general, IC50 refers to the point on the concentration scale where inhibition reaches its midpoint.

Counter-ions that a name gives are not always drawn.

Consider 29 compounds from US7632829B2, “Diazepan derivatives” (Hoffmann-La Roche Inc., priority 2006, dated 2009).

For this assay, the target named is T1, human chemokine receptor 2 isoform B (Homo sapiens, UniProt P41597).
T1 construct: host or cells: CHOK1-CCR2B-A5 (CHO-K1)
T1 sequence (P41597 1-360 isoform P41597-2): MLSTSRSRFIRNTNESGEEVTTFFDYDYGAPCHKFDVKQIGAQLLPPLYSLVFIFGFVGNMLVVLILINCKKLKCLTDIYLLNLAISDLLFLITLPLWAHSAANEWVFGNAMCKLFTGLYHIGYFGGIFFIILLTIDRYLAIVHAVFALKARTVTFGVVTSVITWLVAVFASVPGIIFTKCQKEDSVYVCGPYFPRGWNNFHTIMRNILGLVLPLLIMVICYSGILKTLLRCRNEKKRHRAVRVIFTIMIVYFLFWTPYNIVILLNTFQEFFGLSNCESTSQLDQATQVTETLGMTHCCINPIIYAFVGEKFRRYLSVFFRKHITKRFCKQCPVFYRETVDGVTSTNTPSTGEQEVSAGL
Nature of the assay: Calcium mobilization assay (FLIPR, CHOK1-CCR2B-A5 cells, 20 nM MCP-1). The assay is classed as cell-based. The following applies: Ca mobilisation assay, CCR2, antagonist activity vs 20 nM MCP-1. The essentials: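 Antagonism read as IC50 against 20 nM MCP-1-evoked calcium rise (peak minus baseline Fluo-4 signal, FLIPR) in CCR2B-overexpressing CHO-K1 cells. Compounds were preincubated 20-30 min at 30 °C, with agonist activity recorded for 80 s on addition.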
For orientation: Calcium flux is commonly read through the fluorescence of an indicator in the cells.

For `O=C(/C=C/c1ccc(Cl)c(Cl)c1)N1CCC(=O)N(CCCN2CC[C@@H](F)[C@H](O)C2)CC1` (racemic) [Example 230, (rac,trans)-1-[(E)-3-(3,4-Dichloro-phenyl)-acryloyl]-4-[3-(4-fluoro-3-hydroxy-piperidin-1-yl)-propyl]-[1,4]diazepan-5-one], the IC50 was 215 nM. Regarding `O=C(/C=C/c1cccc(Cl)c1)N1CCC(=O)N(CCN2CCC(c3ccccc3)CC2)CC1` [Example 32, 1-[(E)-3-Chloro-phenyl-acryloyl]-4-{2-[4-phenyl-piperidin-1-yl]-ethyl}-[1,4]diazepan-5-one], the 50% inhibitory concentration (IC50) came to 1470 nM.

Consider `O=C1CC2(CCN(CCCN3CCN(C(=O)/C=C/c4ccc(Cl)c(Cl)c4)CCC3=O)CC2)C(=O)N1` [Example 87, 8-(3-{4-[(E)-3-(3,4-Dichloro-phenyl)-acryloyl]-7-oxo-[1,4]diazepan-1-yl}-propyl)-2,8-diaza-spiro[4.5]decane-1,3-dione], for which the IC50 worked out at 315 nM. Consider `CC1(CO)CCN(CCCCN2CCN(C(=O)C=Cc3ccc(Cl)c(F)c3)CCC2=O)CC1O` (centres unmarked) [Example 412], for which the half-inhibitory concentration (IC50) stood at 342 nM.

Turning to `CC1CCN(CC(O)CN2CCN(C(=O)/C=C/c3ccc(Cl)c(Cl)c3)CCC2=O)CC1O` (racemic) [Example 280], the IC50 came out at 21 nM.

Consider `COC1CCCN(CCCCN2CCN(C(=O)/C=C/c3ccc(Cl)c(Cl)c3)CCC2=O)C1` (racemic) [Example 435], for which the IC50 was found to be 281 nM. For `CC1(C)CCN(CC(O)CN2CCN(C(=O)/C=C/c3ccc(F)c(F)c3)CCC2=O)CC1O` (racemic) [Example 499], the IC50 turned out to be 84 nM.

Regarding `O=C(/C=C/c1ccc(F)c(Cl)c1)N1CCC(=O)N(C[C@@H](O)CN2CC[C@@H](CO)[C@H](O)C2)CC1` (mixture of isomers) [Example 339, 1-[(E)-3-(3-Chloro-4-fluoro-phenyl)-acryloyl]-4-[(S)-2-hydroxy-3-(trans-3-hydroxy-4-hydroxymethyl-piperidin-1-yl)-propyl]-[1,4]diazepan-5-one], the IC50 came to 1360 nM. Consider `COCC1CCCN(CCCCN2CCN(C(=O)/C=C/c3ccc(Cl)c(Cl)c3)CCC2=O)C1` (centres unmarked) [Example 423], for which the half-maximal inhibitory concentration (IC50) amounted to 16 nM. Then `O=C(/C=C/c1ccc(Cl)c(Cl)c1)N1CCC(=O)N(CCCN2CCN(C3CC3)CC2)CC1` [Example 241], with 765 nM; and `O=C(/C=C/c1cccc(Cl)c1)N1CCC(=O)N(CCCN2CCC3(CC3)C(O)C2)CC1` (stereo not drawn) [Example 496, 1-[(E)-3-(3-Chloro-phenyl)-acryloyl]-4-[3-((-)-4-hydroxy-6-aza-spiro[2.5]oct-6-yl)-propyl]-[1,4]diazepan-5-one], with 7 nM. As to `O=C(/C=C/c1ccc(F)c(Cl)c1)N1CCC(=O)N(CCCN2CCCCC2)CC1` [Example 11, 1-[(E)-3-(3-Chloro-4-fluoro-phenyl)-acryloyl]-4-(3-piperidin-1-yl-propyl)-[1,4]diazepan-5-one], the IC50 is 363 nM. Consider `CC(C)N1CCN(CCCN2CCN(C(=O)/C=C/c3ccc(Cl)c(Cl)c3)CCC2=O)CC1C` (racemic) [Example 246, (rac)-1-[(E)-3-(3,4-Dichloro-phenyl)-acryloyl]-4-[3-(4-isopropyl-3-methyl-piperazin-1-yl)-propyl]-[1,4]diazepan-5-one], for which the concentration for half-maximal inhibition (IC50) amounted to 421 nM. For the compound `COC(=O)NC1CCN(CCCCN2CCN(C(=O)/C=C/c3ccc(Cl)c(Cl)c3)CCC2=O)CC1` [Example 441], the IC50 turned out to be 22 nM.

In the case of `O=C(/C=C/c1ccc(F)c(Cl)c1)N1CCC(=O)N(CCCCN2CC[C@H](O)[C@H](F)C2)CC1` (racemic) [Example 390], the concentration for half-maximal inhibition (IC50) is 1100 nM.

As to “4-(3-{4-[(E)-3-(3,4-Dichloro-phenyl)-acryloyl]-7-oxo-[1,4]diazepan-1-yl}-propylamino)-cyclohexanecarboxylic acid amide [Example 77]”, the IC50 turned out to be 326 nM. Consider `COC[C@H]1CCN(C[C@H](O)CN2CCN(C(=O)/C=C/c3ccc(F)c(Cl)c3)CCC2=O)C[C@H]1O` (mixture of isomers) [Example 338, 1-[(E)-3-(3-Chloro-4-fluoro-phenyl)-acryloyl]-4-[(S)-2-hydroxy-3-(cis-3-hydroxy-4-methoxymethyl-piperidin-1-yl)-propyl]-[1,4]diazepan-5-one], for which the IC50 was determined as 553 nM. Consider `O=C(/C=C/c1ccc(F)c(Cl)c1)N1CCC(=O)N(CCCN2CCC(O)CC2)CC1` [Example 196], for which the IC50 stood at 864 nM. For `O=C(/C=C/c1ccc(F)c(Cl)c1)N1CCC(=O)N(C[C@@H](O)CN2CCC3(CC3)C(O)C2)CC1` (stereo partly drawn) [Example 342, 1-[(E)-3-(3-Chloro-4-fluoro-phenyl)-acryloyl]-4-[(S)-2-hydroxy-3-((+)-4-hydroxy-6-aza-spiro[2.5]oct-6-yl)-propyl]-[1,4]diazepan-5-one], the IC50 turned out to be 3 nM. Then `CC(C)N1CCN(CC(O)CN2CCN(C(=O)/C=C/c3ccc(Cl)c(Cl)c3)CCC2=O)CC1C` (racemic) [Example 301], with 977 nM; and `O=C(/C=C/c1ccc(Cl)c(Cl)c1)N1CCC(=O)N(CCCN2CCC[C@H]2CO)CC1` [Example 47, (S)-1-[(E)-3-(3,4-Dichloro-phenyl)-acryloyl]-4-[3-(2-hydroxymethyl-pyrrolidin-1-yl)-propyl]-[1,4]diazepan-5-one], with 193 nM. For the compound `CC1CCN(CCCN2CCN(C(=O)C=Cc3ccc(Cl)c(Cl)c3)CCC2=O)CC1O` (single isomer, unassigned) [Example 260, 1-[(E)-3-(3,4-Dichloro-phenyl)-acryloyl]-4-[3-((−, cis)-3-hydroxy-4-methyl-piperidin-1-yl)-propyl]-[1,4]diazepan-5-one], the IC50 is 9 nM. As to `O=C(/C=C/c1ccc(Cl)c(Cl)c1)N1CCC(=O)N(CCCCN2CC[C@@H](O)[C@H](O)C2)CC1` (racemic) [Example 164, 1-[(E)-3-(3,4-Dichloro-phenyl)-acryloyl]-4-[4-((3RS,4RS)-3,4-dihydroxy-piperidin-1-yl)-butyl]-[1,4]diazepan-5-one hydrochloride], the IC50 was determined as 544 nM. In the case of `CN(CCO)CC(O)CN1CCN(C(=O)/C=C/c2ccc(Cl)c(Cl)c2)CCC1=O` (racemic) [Example 320], the IC50 is 1490 nM.

`COCCN(C)CCCN1CCN(C(=O)/C=C/c2ccc(Cl)c(Cl)c2)CCC1=O` [Example 41, 1-[(E)-3-(3,4-Dichloro-phenyl)-acryloyl]-4-{3-[(2-methoxy-ethyl)-methyl-amino]-propyl}-[1,4]diazepan-5-one]: the IC50 was determined as 1180 nM.

Consider `COCC1CCN(CCCN2CCN(C(=O)/C=C/c3ccc(Cl)c(Cl)c3)CCC2=O)CC1` [Example 247], for which the half-inhibitory concentration (IC50) was found to be 613 nM. In the case of `O=C(/C=C/c1ccc(Cl)c(Cl)c1)N1CCC(=O)N(CCCCN2CCC(O)C(CO)C2)CC1` (racemic) [Example 450, (rac)-1-[(E)-3-(3,4-Dichloro-phenyl)-acryloyl]-4-[4-(4-hydroxy-3-hydroxymethyl-piperidin-1-yl)-butyl]-[1,4]diazepan-5-one], the IC50 was determined as 243 nM. Take `COC[C@H]1CCN(CCCCN2CCN(C(=O)/C=C/c3ccc(Cl)c(Cl)c3)CCC2=O)C[C@H]1O` (racemic) [Example 469]: the IC50 came to 61 nM. In the case of `CCOC(=O)NC1CCN(CCCN2CCN(C(=O)/C=C/c3ccc(Cl)c(Cl)c3)CCC2=O)CC1` [Example 82, [1-(3-{4-[(E)-3-(3,4-Dichloro-phenyl)-acryloyl]-7-oxo-[1,4]diazepan-1-yl}-propyl)-piperidin-4-yl]-carbamic acid ethyl ester], the IC50 amounted to 297 nM.
